Results as given in patent US11207283B2 (priority 2016, dated 2021).

Columns and labels:
[1] = system: GABA-AT; details: cited from earlier work
[2] = system: TgOAT; details: for KI (inactivation): read-out: KI (inhibition constant of inactivation), 10 mM L-ornithine; for KI (inactivation) / kinact/KI / kinact (rate constant of enzyme inactivation): time-dependent inactivators; for KI (inactivation) / kinact (rate constant of enzyme inactivation): pH 8.0, 37° C.; for activity in inactivating TgOAT (in words): summary of Table 1; for selectivity of inactivation, TgOAT versus GABA-AT and human OAT (in words): compared with literature data on GABA-AT and human OAT; for Ki: read-out: Ki (reversible inhibition), reversible inhibitors, calculated from the IC50 value
[3] = target: T1, human OAT (Homo sapiens, UniProt P04181); details: cited from earlier work
T1 sequence (P04181 36-439 limits assumed): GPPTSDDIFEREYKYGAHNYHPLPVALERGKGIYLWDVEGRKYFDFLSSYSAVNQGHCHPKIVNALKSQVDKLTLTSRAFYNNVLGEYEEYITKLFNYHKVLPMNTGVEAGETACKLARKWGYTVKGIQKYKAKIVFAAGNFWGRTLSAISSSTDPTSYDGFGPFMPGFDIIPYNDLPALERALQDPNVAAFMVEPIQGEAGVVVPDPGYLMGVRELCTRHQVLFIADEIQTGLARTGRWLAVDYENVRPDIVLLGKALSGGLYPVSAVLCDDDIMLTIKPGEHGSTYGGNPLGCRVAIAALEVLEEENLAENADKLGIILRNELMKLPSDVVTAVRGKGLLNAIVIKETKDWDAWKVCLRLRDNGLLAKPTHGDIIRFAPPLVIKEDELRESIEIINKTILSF

[4] = system: P. falciparum parasite, D6 (Sierra Leone); experiment: Malaria SYBR Green I-based fluorescence (MSF) assay; assay type: cell-based, Plasmodium falciparum; details: concentrations up to 10000 ng/mL, data not shown
[5] = system: Type I T. gondii tachyzoites; experiment: Effect of TgOAT inactivators on T. gondii in vitro (YFP RH tachyzoites in HFF); assay type: cell-based, Toxoplasma gondii; details: HFF host cells, 72 hours, tested into the millimolar range
Method: HFFs were grown to confluence in black, flat-bottomed 96-well microplates. […] Control triplicates with only fibroblasts and with pyrimethamine and sulfadiazine (the current standard of treatment of T. gondii infection) were also conducted. The cells and parasites were then incubated at 37° C. for 72 hours. Fluorescence was measured using a Bio-Tek Synergy™ H4 Hybrid Multi-Mode Microplate Reader.

[6] = system: glutamate decarboxylase (GAD); details: cited from earlier work
[7] = system: aspartate aminotransferase (AspAT); details: cited from earlier work

Row | Compound | activity against GABA-AT (in words) [1] | KI (inactivation) [2] [µM] | kinact/KI [2] [M⁻¹ s⁻¹] | kinact (rate constant of enzyme inactivation) [2] [min⁻¹] | other results
1 | NC(CF)CCC(=O)O (stereo not shown) [5-Fluoro-4-aminopentanoic acid, reference compound] | very efficient inactivator | – | – | – | –
2 | N[C@H]1C[C@@H](C(=O)O)CC1=C(F)F [Compound 1] | extremely potent inactivator | 4.4 | 41670 | 11 | activity in inactivating TgOAT (in words) [2]: high activity in inactivating TgOAT; activity against human OAT (in words) [3]: potent inactivator; antimalarial activity in live-cell parasite assay [4]: no antimalarial activity; inhibition of tachyzoite replication in vitro [5]: no effects on active T. gondii infection
3 | NC1CC(C(=O)O)CC1=C(C(F)(F)F)C(F)(F)F (stereo not shown) [Compound 2] | weak reversible inhibitor | 4.8 | 15300 | 4.4 | activity in inactivating TgOAT (in words) [2]: high activity in inactivating TgOAT; activity against human OAT (in words) [3]: highly potent inactivator; antimalarial activity in live-cell parasite assay [4]: no antimalarial activity; inhibition of tachyzoite replication in vitro [5]: no effects on active T. gondii infection
4 | NC1CC(C(=O)O)CC1=CC(F)(F)F (stereo not shown) [Compound 3] | – | 30 | 83.3 | 0.15 | –
5 | NC1CC(C(=O)O)CC1=CC(F)(F)F (stereo not shown) [Compound 4] | – | 21 | 183 | 0.23 | –
6 | NC1CC(C(=O)O)CC1=C(Cl)Cl (stereo not shown) [Compound 5] | very weak reversible inhibitor | 15 | 4830 | 4.4 | selectivity of inactivation, TgOAT versus GABA-AT and human OAT (in words) [2]: high specific inactivation towards TgOAT but not GABA-AT or human OAT; activity in inactivating TgOAT (in words) [2]: high activity in inactivating TgOAT; activity against human OAT (in words) [3]: very weak reversible inhibitor; antimalarial activity in live-cell parasite assay [4]: no antimalarial activity; inhibition of tachyzoite replication in vitro [5]: no effects on active T. gondii infection
7 | NC1CC(C(=O)O)C=C1C(F)(F)C(F)(F)F (stereo not shown) [Compound 6] | – | 21 | 167 | 0.21 | –
8 | NC1CC(C(=O)O)CC1F (stereo not shown) [Compound 7] | – | 2100 | 86.7 | 11 | –
9 | NC1CC(C(=O)O)CC1(F)F (stereo not shown) [Compound 8] | – | 130 | 1000 | 7.8 | off-target activity at GAD (in words) [6]: significant
10 | NC1CC(C(=O)O)CC1Br (stereo not shown) [Compound 9] | – | 2600 | 31.7 | 5.0 | –
11 | NC1C(F)CC(C(=O)O)C1Br (stereo not shown) [Compound 10] | – | 110 | 583 | 3.9 | –
12 | NCc1c(CC(=O)O)cccc1C(F)(F)F [Compound 11] | weak reversible inhibitor | 15 | 6000 | 5.4 | selectivity of inactivation, TgOAT versus GABA-AT and human OAT (in words) [2]: high specific inactivation towards TgOAT but not GABA-AT or human OAT; activity in inactivating TgOAT (in words) [2]: high activity in inactivating TgOAT; activity against human OAT (in words) [3]: weak inactivator; antimalarial activity in live-cell parasite assay [4]: no antimalarial activity; inhibition of tachyzoite replication in vitro [5]: no effects on active T. gondii infection
13 | C[C@@H](F)[C@@H](N)CCC(=O)O [Compound 12] | – | – | – | – | Ki [2]: 2900 µM
14 | NCc1cocc1C(=O)O [Compound 13] | – | – | – | – | Ki [2]: > 5000 µM
15 | NCc1cscc1C(=O)O [Compound 14] | – | – | – | – | Ki [2]: 4200 µM
16 | NCc1csc(C(=O)O)c1 [Compound 15] | – | – | – | – | Ki [2]: 4900 µM
17 | NCc1ccc(C(=O)O)s1 [Compound 16] | – | – | – | – | Ki [2]: > 5000 µM
18 | NCc1c[nH]c(C(=O)O)c1 [Compound 17] | – | – | – | – | Ki [2]: > 5000 µM
19 | N[C@H](CF)CCC(=O)O [Compound 18, (S)-4-amino-5-fluoropentanoic acid] | moderate inactivator | 4.6 | 36670 | 10 | selectivity of inactivation, TgOAT versus GABA-AT and human OAT (in words) [2]: high specific inactivation towards TgOAT but not GABA-AT or human OAT; activity in inactivating TgOAT (in words) [2]: high activity in inactivating TgOAT; activity against human OAT (in words) [3]: moderate inactivator; antimalarial activity in live-cell parasite assay [4]: no antimalarial activity; inhibition of tachyzoite replication in vitro [5]: no effects on active T. gondii infection
20 | C=CC(N)CCC(=O)O (stereo not shown) [Compound 22, 4-am inohex-5-enoic acid, reference compound] | – | 440 | 383 | 9.9 | off-target activity at AspAT (in words) [7]: weakly affects; off-target activity at GAD (in words) [6]: no activity
21 | gabaculine [Compound 23, reference compound] | equally potent irreversible inhibitor | 0.82 | – | – | –
